Among the test systems are HOP-62; OVCAR-8; SW-620; 786-0; OVCAR-5; IGROV-1; SF-295; SK-OV-3; MOLT-4; TK-10; NCI-H23; T47D; SN12C; UACC-257; HCT-15; A498; HT-29; MDA-MB-231; Malme-3M; UO-31.
Common to all, as to test: NCI tumour cell line growth inhibition, 48 h

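Exposure lasted 48 hours, with cells grown in 96-well plates and compounds tested at five concentrations. Here, GI50 denotes the concentration required for 50% inhibition of growth.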 The source made the active and inactive calls. Rule as the data show it: active = GI50 up to about 1.1 µM and inactive = higher. Where a SMILES comes first, the peptide text is derived from it. The star is where a group is joined. CH2Cl = ClC*

Turning to `CSC(=S)Nc1cc(C)cc(C)n1`, the GI50 is > 100 µM (inactive) in the assay with HOP-62; > 31.6 µM (inactive) in the assay on OVCAR-8; > 31.6 µM (inactive) with SW-620; 22.4 µM (inactive) in the assay with 786-0; > 31.6 µM (inactive) in the assay on OVCAR-5; > 100 µM (inactive) in the assay on IGROV-1. The GI50 in the assay on SF-295, in the assay with SK-OV-3, in the assay with MOLT-4, with TK-10, in the assay on NCI-H23 and with T47D was > 31.6 µM (inactive) throughout. In addition, the GI50 in the assay with SN12C is > 31.6 µM (inactive); in the assay on UACC-257 it was > 31.6 µM (inactive); in the assay with HCT-15, greater than 31.6 µM; in the assay with A498, > 100 µM (inactive); with HT-29 it was > 31.6 µM (inactive); in the assay on MDA-MB-231, > 100 µM (inactive). For the same molecule, the GI50 with Malme-3M and in the assay with UO-31 was > 31.6 µM (inactive) each time.

As to `O=C(O)c1cc(C(=O)O)nc(C(=O)O)c1`, the GI50 in the assay with HOP-62, with OVCAR-8, in the assay on SW-620, in the assay on 786-0, with OVCAR-5 and in the assay on IGROV-1 was > 100 µM (inactive) in each case. In addition, the GI50 in the assay on SF-295, with SK-OV-3, in the assay on MOLT-4, with TK-10, with NCI-H23 and in the assay with T47D was > 100 µM (inactive) throughout. Moreover, the GI50 in the assay with SN12C was > 100 µM (inactive); in the assay on UACC-257 it was > 100 µM (inactive); in the assay on HCT-15 it was greater than 100 µM; in the assay with A498 it was > 100 µM (inactive); in the assay with HT-29, > 100 µM (inactive); with MDA-MB-231, > 100 µM (inactive). In addition, the GI50 in the assay on Malme-3M and with UO-31 was > 100 µM (inactive) each time.

For `Cc1n(Cc2ccccc2)c2c([n+]1C)C(=O)c1ccccc1C2=O`, the GI50 in the assay on HOP-62 was 0.0407 µM (active); in the assay on OVCAR-8 it was 0.0431 µM (active); with SW-620, 0.0455 µM (active); in the assay with 786-0 it was 0.0845 µM (active); in the assay with OVCAR-5, 0.167 µM (active); in the assay on IGROV-1, 0.0301 µM (active). For the same molecule, the GI50 with SF-295 is 0.199 µM (active); in the assay on SK-OV-3 it was 0.389 µM (active); with MOLT-4, 0.0421 µM (active); in the assay with TK-10, 0.265 µM (active); in the assay with NCI-H23 it was 0.0434 µM (active); in the assay with T47D, 0.215 µM (active). Further, the GI50 in the assay on SN12C is 0.0318 µM (active); in the assay with UACC-257 it was 0.034 µM (active); in the assay on HCT-15 it was 2.56 µM; in the assay on A498, 0.129 µM (active); with HT-29, 0.0417 µM (active); with MDA-MB-231, 0.0583 µM (active). Besides, the GI50 in the assay with Malme-3M was 0.0171 µM (active); in the assay on UO-31, 4.57 µM (inactive).

Regarding `CC(=O)NC(CC(C)C)C(=O)NC(Cc1ccccc1)C(=O)CCl` (stereo not drawn) (Ac-Leu-Phe-CH2Cl; configuration not given here), the GI50 is 18.3 µM (inactive) in the assay on HOP-62; 4.69 µM (inactive) in the assay on OVCAR-8; 2.67 µM (inactive) with SW-620; 4 µM (inactive) with 786-0; 17.5 µM (inactive) in the assay with OVCAR-5; 16.1 µM (inactive) in the assay with IGROV-1. The GI50 with SF-295 was 18.8 µM (inactive); in the assay with SK-OV-3, 18.1 µM (inactive); in the assay with MOLT-4 it was 1.84 µM (inactive); in the assay with TK-10, 10.4 µM (inactive); with NCI-H23 it was 13.1 µM (inactive); in the assay on T47D it was 7.82 µM (inactive). Moreover, the GI50 was 13.4 µM (inactive) in the assay with SN12C; 7.73 µM (inactive) in the assay with UACC-257; 3.16 µM in the assay on HCT-15; 18.8 µM (inactive) in the assay with A498; 8.38 µM (inactive) in the assay on HT-29; 12.1 µM (inactive) with MDA-MB-231. Moreover, the GI50 was 5.05 µM (inactive) in the assay on Malme-3M and 14.6 µM (inactive) in the assay with UO-31.

For `COc1ccc2oc(=O)c(CC=C(C)C)c(O)c2c1C`, the GI50 in the assay on HOP-62, in the assay with OVCAR-8, in the assay with SW-620, in the assay on 786-0, in the assay with OVCAR-5 and with IGROV-1 was > 100 µM (inactive) in each case. For the same molecule, the GI50 was > 100 µM (inactive) with SF-295; > 100 µM (inactive) in the assay with SK-OV-3; 36.4 µM (inactive) in the assay on MOLT-4; > 100 µM (inactive) in the assay with TK-10; > 100 µM (inactive) in the assay on NCI-H23; > 100 µM (inactive) in the assay on T47D. Besides, the GI50 with SN12C is > 100 µM (inactive); in the assay on UACC-257, > 100 µM (inactive); with HCT-15, greater than 100 µM; with A498 it was > 100 µM (inactive); in the assay with HT-29, > 100 µM (inactive); in the assay on MDA-MB-231, > 100 µM (inactive). Also, the GI50 with Malme-3M and in the assay on UO-31 was > 100 µM (inactive) throughout.

`CCn1c(=O)c2cn[nH]c2n(C)c1=O`: the GI50 in the assay on HOP-62 was > 100 µM (inactive); with OVCAR-8, > 100 µM (inactive); in the assay with SW-620 it was > 100 µM (inactive); in the assay with 786-0, > 100 µM (inactive); in the assay with OVCAR-5 it was > 100 µM (inactive); with IGROV-1 it was 66.7 µM (inactive). Besides, the GI50 with SF-295, with SK-OV-3, in the assay with MOLT-4, in the assay with TK-10, with NCI-H23 and in the assay with T47D was > 100 µM (inactive) each time. In addition, the GI50 was > 100 µM (inactive) in the assay with SN12C; > 100 µM (inactive) in the assay on UACC-257; greater than 100 µM in the assay with HCT-15; > 100 µM (inactive) in the assay on A498; > 100 µM (inactive) in the assay on HT-29; > 100 µM (inactive) in the assay with MDA-MB-231. Further, the GI50 with Malme-3M and in the assay with UO-31 was > 100 µM (inactive) in each case.

On to `Clc1ccc(CCNCCNC2(c3cc4ccccc4s3)CCCCC2)cc1Cl`, for which the GI50 with HOP-62 is 1.26 µM (inactive); with OVCAR-8 it was 1.84 µM (inactive); in the assay with SW-620, 1.86 µM (inactive); in the assay on 786-0 it was 1.95 µM (inactive); in the assay on OVCAR-5, 1.85 µM (inactive); in the assay on IGROV-1, 1.81 µM (inactive). Further, the GI50 is 1.59 µM (inactive) in the assay on SF-295; 1.46 µM (inactive) with SK-OV-3; 2.49 µM (inactive) in the assay on MOLT-4; 1.7 µM (inactive) with TK-10; 1.78 µM (inactive) in the assay on NCI-H23; 1.95 µM (inactive) with T47D. In addition, the GI50 in the assay on SN12C is 1.96 µM (inactive); in the assay on UACC-257, 1.81 µM (inactive); in the assay with HCT-15 it was 1.92 µM; in the assay with A498, 1.78 µM (inactive); in the assay on HT-29, 1.83 µM (inactive); in the assay on MDA-MB-231, 1.78 µM (inactive). Also, the results for the GI50 in the assay with Malme-3M and in the assay with UO-31 were 1.88 µM (inactive) and 1.85 µM (inactive), respectively.

In the case of `O=C(CCN1CCOCC1)Nc1ccc(F)cc1F`, the GI50 in the assay with HOP-62, in the assay on OVCAR-8, with SW-620, in the assay with 786-0, in the assay on OVCAR-5 and with IGROV-1 was > 100 µM (inactive) each time. For the same molecule, the GI50 with SF-295, with SK-OV-3, in the assay on MOLT-4, with TK-10, with NCI-H23 and with T47D was > 100 µM (inactive) each time. The GI50 is > 100 µM (inactive) in the assay on SN12C; > 100 µM (inactive) in the assay with UACC-257; greater than 100 µM in the assay on HCT-15; > 100 µM (inactive) in the assay on A498; > 100 µM (inactive) with HT-29; > 100 µM (inactive) in the assay on MDA-MB-231. Besides, the GI50 in the assay with Malme-3M and in the assay with UO-31 was > 100 µM (inactive) in each case.

Turning to `Cc1cc(=O)n2c3c(c4c(cc13)c(CN(C)C)cc(=O)n4C)OC2`, the GI50 is 15.2 µM (inactive) with HOP-62; 9.1 µM (inactive) in the assay on OVCAR-8; 9.98 µM (inactive) with SW-620; 15.9 µM (inactive) with 786-0; 37.9 µM (inactive) with OVCAR-5; 9.51 µM (inactive) in the assay with IGROV-1. For the same molecule, the GI50 is 16.9 µM (inactive) with SF-295; 26.8 µM (inactive) in the assay with SK-OV-3; 7.48 µM (inactive) with MOLT-4; 19.6 µM (inactive) in the assay on TK-10; 14 µM (inactive) in the assay on NCI-H23; 38.5 µM (inactive) with T47D. Further, the GI50 was 20.3 µM (inactive) in the assay on SN12C; 21.9 µM (inactive) with UACC-257; 6.15 µM in the assay with HCT-15; 38.2 µM (inactive) in the assay with A498; 8.13 µM (inactive) in the assay on HT-29; 33.3 µM (inactive) in the assay on MDA-MB-231. Further, the figures for the GI50 in the assay on Malme-3M and with UO-31 were 12.4 µM (inactive) and 8.04 µM (inactive), respectively.

Turning to `Cc1c(C=C(C#N)C#N)c(=O)n(C)c(=O)n1C`, the GI50 in the assay on HOP-62, in the assay on OVCAR-8, in the assay on SW-620, in the assay with 786-0, in the assay with OVCAR-5 and in the assay on IGROV-1 was > 100 µM (inactive) in each case. The GI50 in the assay on SF-295 is > 100 µM (inactive); in the assay on SK-OV-3, > 100 µM (inactive); in the assay with MOLT-4 it was 95.3 µM (inactive); in the assay on TK-10, > 100 µM (inactive); with NCI-H23 it was > 100 µM (inactive); with T47D, > 100 µM (inactive). Besides, the GI50 is > 100 µM (inactive) in the assay on SN12C; > 100 µM (inactive) in the assay with UACC-257; greater than 100 µM in the assay with HCT-15; > 100 µM (inactive) in the assay with A498; > 100 µM (inactive) with HT-29; > 100 µM (inactive) with MDA-MB-231. The GI50 in the assay with Malme-3M and with UO-31 was > 100 µM (inactive) in each case.
